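Five compound concentrations were applied to cells in 96-well plates for 48 hours; endpoints were derived by simple linear interpolation of the resulting dose-response curve. Abbreviation: GI50, concentration required for 50% inhibition of growth. TGI: total growth inhibition.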
Tests used:
Experiment in all cases: inhibition of tumour cell growth, NCI panel, 48 h
[1] = tested on: A549 NSCLC
[2] = tested on: HOP-92 NSCLC
[3] = tested on: SR leukemia
[4] = tested on: UACC-62 melanoma
[5] = tested on: KM12 colon
[6] = tested on: HCC-2998 colon
[7] = tested on: HCT-116 colon
[8] = tested on: NCI-H226 lung
[9] = tested on: SF-268 CNS
[10] = tested on: TK-10 renal

COc1ccc2c(c1)-c1c(c3cc(OC)ccc3n(CCN(C)C)c1=O)C2=O
GI50 [1]: 388 nM | TGI [1]: 2970 nM | GI50 [2]: 2650 nM | TGI [2]: 50 µM | GI50 [3]: 592 nM | TGI [3]: 2.64 µM | GI50 [4]: 3110 nM | TGI [4]: 9.73 µM | GI50 [5]: 304 nM | TGI [5]: 1.28 µM | GI50 [6]: 1180 nM | TGI [6]: 9.24 µM | GI50 [7]: 241 nM | TGI [7]: 6850 nM | GI50 [8]: 665 nM | TGI [8]: 10.4 µM | GI50 [9]: 362 nM | TGI [9]: 6.21 µM | GI50 [10]: 1650 nM | TGI [10]: 6.98 µM

CCS(=O)(=O)c1ccc(OC)c(Nc2ncc(-c3cccc(F)c3)o2)c1
GI50 [1]: > 25000 nM | TGI [1]: > 25000 nM | GI50 [2]: > 25000 nM | TGI [2]: > 25 µM | GI50 [3]: > 25000 nM | TGI [3]: > 25 µM | GI50 [4]: > 25000 nM | TGI [4]: > 25 µM | GI50 [5]: 649 nM | TGI [5]: > 25 µM | GI50 [6]: > 25000 nM | TGI [6]: > 25 µM | GI50 [7]: > 25000 nM | TGI [7]: > 25000 nM | GI50 [8]: 513 nM | TGI [8]: > 25 µM | GI50 [9]: > 25000 nM | TGI [9]: > 25 µM | GI50 [10]: > 25000 nM | TGI [10]: > 25 µM

CN1CCN(c2ccc(NC3=CC(=O)c4ncncc4C3=O)cc2)CC1
GI50 [1]: 405 nM | TGI [1]: 2300 nM | GI50 [2]: 312 nM | TGI [2]: 0.993 µM | GI50 [3]: 321 nM | TGI [3]: > 100 µM | GI50 [4]: 303 nM | TGI [4]: 0.804 µM | GI50 [5]: 1670 nM | TGI [5]: 4.35 µM | GI50 [6]: 1270 nM | TGI [6]: 2.82 µM | GI50 [7]: 229 nM | TGI [7]: 545 nM | GI50 [8]: 1510 nM | TGI [8]: 3.47 µM | GI50 [9]: 1770 nM | TGI [9]: 5.73 µM | GI50 [10]: 2010 nM | TGI [10]: 3.81 µM

COc1cc(-c2ccc[nH]2)[nH]c1/C=C1\N=C(C)C(CC(=O)OCC(C)(C)C)=C1C
GI50 [1]: 244 nM | TGI [1]: 1240 nM | GI50 [2]: 110 nM | TGI [2]: 0.531 µM | GI50 [3]: 122 nM | TGI [3]: 0.617 µM | GI50 [4]: 211 nM | TGI [4]: 0.555 µM | GI50 [5]: 267 nM | TGI [5]: 1.76 µM | GI50 [6]: 368 nM | TGI [6]: 1.75 µM | GI50 [7]: 181 nM | TGI [7]: 1150 nM | GI50 [8]: 176 nM | TGI [8]: 0.736 µM | GI50 [9]: 288 nM | TGI [9]: 1.84 µM | GI50 [10]: 326 nM | TGI [10]: 1.19 µM

CN(C)c1ccc2[nH]c3c(C(N)=O)cc(=O)c(=O)c=3oc2c1
GI50 [1]: 3190 nM | TGI [1]: > 100000 nM | GI50 [2]: 1720 nM | TGI [2]: 8.58 µM | GI50 [3]: 942 nM | TGI [3]: 8.49 µM | GI50 [4]: 1740 nM | TGI [4]: 5.32 µM | GI50 [5]: 3330 nM | TGI [5]: > 100 µM | GI50 [6]: 4900 nM | TGI [6]: > 100 µM | GI50 [7]: 304 nM | TGI [7]: 1220 nM | GI50 [8]: 4740 nM | TGI [8]: > 100 µM | GI50 [9]: 3040 nM | TGI [9]: > 100 µM | GI50 [10]: 3730 nM | TGI [10]: > 100 µM

— PubChem BioAssay (NCI)
